# Data from ChEMBL document CHEMBL5725340, “BMP inhibitors and methods of use thereof” (2017).
# pIC50: −log10 of the molar value.
# Molecular target: T1, Activin receptor type-1 (Homo sapiens, UniProt Q04771)
# T1 sequence (Q04771 whole entry): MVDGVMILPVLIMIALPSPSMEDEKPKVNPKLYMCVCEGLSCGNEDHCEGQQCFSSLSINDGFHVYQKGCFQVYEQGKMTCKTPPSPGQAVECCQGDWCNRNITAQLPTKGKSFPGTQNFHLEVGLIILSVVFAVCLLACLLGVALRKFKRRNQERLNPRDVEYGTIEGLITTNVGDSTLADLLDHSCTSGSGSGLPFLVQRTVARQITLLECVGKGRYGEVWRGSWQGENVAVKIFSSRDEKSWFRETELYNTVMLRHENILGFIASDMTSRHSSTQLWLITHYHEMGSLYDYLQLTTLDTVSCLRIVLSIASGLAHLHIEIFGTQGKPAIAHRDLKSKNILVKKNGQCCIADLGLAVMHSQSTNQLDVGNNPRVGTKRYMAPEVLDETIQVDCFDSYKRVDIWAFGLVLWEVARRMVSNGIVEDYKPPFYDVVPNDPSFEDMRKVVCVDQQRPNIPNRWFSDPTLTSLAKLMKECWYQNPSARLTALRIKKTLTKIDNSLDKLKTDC
# Assay: ALK1-6 enzymatic assays: Specifically, compounds were assayed using LANCE® Ultra ULight¿ technology (Perkin Elmer) against human ALK1-6 enzymes (ALK1: Life Technologies, ALK2-6: Carna Biosciences). Briefly, ALK enzyme (10 nM) was prepared in kinase buffer (50 mM HEPES, pH 7.5, 10 mM MgCl2, […], 0.005% Tween-20 and 2 mM DTT) and dispensed at 2.5 μL/well into a 1536 well, white, solid …
structure (smiles),measurement,value
Cc1cc(-c2cnn3cc(-c4ccc(C5CCNCC5)cc4)cnc23)c2ccccc2n1,pIC50,7.64
